Measurements from ChEMBL document CHEMBL6127084, “Exploration of the tunability of BRD4 degradation by DCAF16 trans-labelling covalent glues” (Eur J Med Chem, 2024).
Calls of active or inactive are those of the source. No cut-off for these calls is given here.

Experiments:
[1] = target: T1, DDB1- and CUL4-associated factor 16/Bromodomain-containing protein 4 (Homo sapiens, UniProt O60885+Q9NXF7); test: Molecular glue degradation (MGD) activity at DCAF16/BRD4 BD2 in human K562 cells assessed as maximum degradation at 10 uM incubated for 16 hrs by fluorescent stability reporter assay relative to control; type: cell-based
T1 sequence (Q9NXF7 whole entry, looked up, other chains not shown): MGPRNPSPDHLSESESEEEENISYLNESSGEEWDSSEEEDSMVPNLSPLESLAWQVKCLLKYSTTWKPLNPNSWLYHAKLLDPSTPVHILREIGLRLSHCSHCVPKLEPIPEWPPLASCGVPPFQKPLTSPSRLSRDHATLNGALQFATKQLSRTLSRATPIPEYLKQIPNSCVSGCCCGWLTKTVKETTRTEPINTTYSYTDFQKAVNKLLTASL

K562 = test: Induction of eGF-tagged BRD4 BD2 degradation in DCAF16 knock out human K562 cells at 1 uM incubated for 16 hrs by Western blot analysis; type: cell-based
Jurkat = test: Molecular glue degradation (MGD) activity at BRD4 in DCAF16 knock out human Jurkat cells assessed as BRD4 degradation at 0.01 to 10 uM incubated for 6 hrs by Nano-Glo HiBiT assay; type: cell-based; settings: dose 0.01-10 µM
[2] = Stability of compound in PBS assessed as half lives incubated for 1 hrs by LC-MS/MS analysis; type: physicochemical
[3] = target: T1, DDB1- and CUL4-associated factor 16/Bromodomain-containing protein 4; test: Potency index, ratio of GNE011 MIC to test compound MIC for molecular glue degradation (MGD) activity at DCAF16/BRD4 BD2 in human K562 cells assessed as maximum degradation at 10 uM incubated for 16 hrs by fluorescent stability reporter assay; type: cell-based
[4] = target: T1, DDB1- and CUL4-associated factor 16/Bromodomain-containing protein 4; test: Molecular glue degradation (MGD) activity at DCAF16/BRD4 in human K562 cells incubated for 16 hrs; type: cell-based
[5] = Glutathione reactivity in PBS buffer assessed as half lives incubated for 1 hrs by LC-MS/MS analysis; type: physicochemical
[6] = target: T1, DDB1- and CUL4-associated factor 16/Bromodomain-containing protein 4; test: Molecular glue degradation (MGD) activity at DCAF16/BRD4 in wild type human Jurkat cells assessed as BRD4 degradation at < 100 nM incubated for 6 hrs by Nano-Glo HiBiT assay; type: cell-based
[7] = target: T1, DDB1- and CUL4-associated factor 16/Bromodomain-containing protein 4; test: Molecular glue degradation (MGD) activity at DCAF16/ BRD4 BD2 in human K562 cells transfected with […] incubated for 16 hrs by fluorescent stability reporter assay; type: cell-based; settings: dose 0.001-10 µM
[8] = target: T1, DDB1- and CUL4-associated factor 16/Bromodomain-containing protein 4; test: Molecular glue degradation (MGD) activity at DCAF16/BRD4 in human K562 cells assessed as covalent-engagement of DCAF16 by measuring BRD4 degradation at 1 uM preincubated for 4 hrs followed by compound addition measured after 24 hrs (no washout experiment) by Western blot analysis; type: cell-based; settings: time 28.0 hrs
[9] = target: T1, DDB1- and CUL4-associated factor 16/Bromodomain-containing protein 4; test: Binding affinity to His-tagged BRD4 BD2 (unknown origin) assessed as ternary complex formation at 0.001 to 100 uM incubated for 1 to 24 hrs by TR-FRET assay; type: protein assay; settings: dose 0.001-100 µM, time 1-24 hrs
[10] = target: T1, DDB1- and CUL4-associated factor 16/Bromodomain-containing protein 4; test: Molecular glue degradation (MGD) activity at DCAF16/BRD4 in human K562 cells assessed as maximum degradation incubated for 16 hrs by fluorescent stability reporter assay relative to control; type: cell-based
[11] = target: T1, DDB1- and CUL4-associated factor 16/Bromodomain-containing protein 4; test: Binding affinity to DCAF16/eGF-tagged BRD4 BD2 (unknown origin) assessed as ternary complex formation by measuring maximum TR-FRET ratio at 100 uM incubated for 1 hrs by TR-FRET assay; type: protein assay
[12] = target: T1, DDB1- and CUL4-associated factor 16/Bromodomain-containing protein 4; test: Molecular glue degradation (MGD) activity at DCAF16/BRD4 in wild type human Jurkat cells assessed as BRD4 degradation at 10 nM incubated for 6 hrs by Nano-Glo HiBiT assay; type: cell-based
[13] = target: T1, DDB1- and CUL4-associated factor 16/Bromodomain-containing protein 4; test: Binding affinity to DCAF16/eGF-tagged BRD4 BD2 (unknown origin) assessed as ternary complex formation by measuring maximum TR-FRET ratio at 100 uM incubated for 24 hrs by TR-FRET assay; type: protein assay

With C=CS(=O)(=O)Nc1ccc(C2=N[C@@H](CC(=O)OC(C)(C)C)c3nncn3-c3sc(C)c(C)c32)cc1 the Emax [1] was 95%, the Activity (K562) was “inactive” and the Activity (Jurkat) was “inactive”. The half-life [2] was > 12.5 h, the fold change (FC) [3] was 1000 and the DC50 [4] was 1 nM. The half-life [5] was > 12.5 h.

In the case of Cc1sc2c(c1C)C(c1ccc(NC(=O)CCl)cc1)=N[C@@H](CC(=O)OC(C)(C)C)c1nncn1-2, the Emax [1] is reported as 56%, the Activity (Jurkat) is reported as “inactive” and the half-life [2] is reported as > 12.5 h. The DC50 [4] was 8 nM, the half-life [5] was 8.85 h and the Activity [6] was > 90%.

In the case of Cc1sc2c(c1C)C(c1ccc(/C=C/C(N)=O)cc1)=N[C@@H](CC(=O)OC(C)(C)C)c1nncn1-2, the Activity [7] is reported as “inactive”, the half-life [2] is reported as > 12.5 h and the Activity [8] is reported as “Active”. The Activity [9] was “inactive” and the half-life [5] was > 12.5 h.

With Cc1sc2c(c1C)C(c1ccc(/C=C/C=O)cc1)=N[C@@H](CC(=O)OC(C)(C)C)c1nncn1-2 the Activity (K562) was “inactive”, the Activity (Jurkat) was “inactive” and the half-life [2] was > 12.5 h. For the same compound, the Emax [10] was 75%, the DC50 [4] was 64 nM and the half-life [5] was 6.92 h. For the same compound, the Activity [6] was > 90%.

In the case of Cc1sc2c(c1C)C(c1ccc(C#CC(N)=O)cc1)=N[C@@H](CC(=O)OC(C)(C)C)c1nncn1-2, the Activity (K562) is reported as “inactive”, the Activity (Jurkat) is reported as “inactive” and the half-life [2] is reported as > 12.5 h. The Emax [10] was 69%, the DC50 [4] was 51 nM and the half-life [5] was 6.33 h.

In the case of Cc1sc2c(c1C)C(c1ccc(C#CCO)cc1)=N[C@@H](CC(=O)OC(C)(C)C)c1nncn1-2, the Emax [10] is reported as 10%, the Activity [9] is reported as “inactive” and the DC50 [4] is reported as > 10000 nM.

For Cc1sc2c(c1C)C(c1ccc(C#CC=O)cc1)=N[C@@H](CC(=O)OC(C)(C)C)c1nncn1-2, the Activity (K562) was “inactive”, the Activity (Jurkat) was “inactive” and the half-life [2] was > 12.5 h. It also gave an Emax [10] of 69%, a Ratio [11] of 2.12 and an Activity [12] of 73%. For the same compound, the DC50 [4] was 703 nM, the half-life [5] was 8.83 h and the Ratio [13] was 0.28. For the same compound, the Activity [6] was > 90%.
